Source: PubChem BioAssay (NCI)
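Five concentrations, 48 hours, 96-well plates. TGI: total growth inhibition.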

Assays:
Test in all cases: inhibition of tumour cell growth, NCI panel, 48 h
NCI-H522 lung = test system: NCI-H522 lung
PC-3 prostate = test system: PC-3 prostate
MCF7 breast = test system: MCF7 breast
HT29 colon = test system: HT29 colon
IGROV1 ovarian = test system: IGROV1 ovarian
MALME-3M melanoma = test system: MALME-3M melanoma
NCI-H23 lung = test system: NCI-H23 lung
HOP-92 NSCLC = test system: HOP-92 NSCLC
MDA-N = test system: MDA-N
HCT-116 colon = test system: HCT-116 colon
HL-60(TB) leukemia = test system: HL-60(TB) leukemia
SR leukemia = test system: SR leukemia
OVCAR-4 ovarian = test system: OVCAR-4 ovarian
UACC-257 melanoma = test system: UACC-257 melanoma
SK-MEL-2 melanoma = test system: SK-MEL-2 melanoma
OVCAR-5 ovarian = test system: OVCAR-5 ovarian
NCI-H460 lung = test system: NCI-H460 lung
DU-145 prostate = test system: DU-145 prostate
RPMI-8226 leukemia = test system: RPMI-8226 leukemia
SW-620 colon = test system: SW-620 colon
OVCAR-8 ovarian = test system: OVCAR-8 ovarian
A498 renal = test system: A498 renal
HCT-15 colon = test system: HCT-15 colon
SK-MEL-28 melanoma = test system: SK-MEL-28 melanoma
SK-MEL-5 melanoma = test system: SK-MEL-5 melanoma
MDA-MB-435 = test system: MDA-MB-435
CCRF-CEM leukemia = test system: CCRF-CEM leukemia
HS 578T breast = test system: HS 578T breast
A549 NSCLC = test system: A549 NSCLC
SF-295 CNS = test system: SF-295 CNS
SN12C renal = test system: SN12C renal
MDA-MB-231 breast = test system: MDA-MB-231 breast
EKVX NSCLC = test system: EKVX NSCLC
U251 CNS = test system: U251 CNS
UO-31 renal = test system: UO-31 renal
SNB-75 CNS = test system: SNB-75 CNS
UACC-62 melanoma = test system: UACC-62 melanoma
TK-10 renal = test system: TK-10 renal
BT-549 breast = test system: BT-549 breast
OVCAR-3 ovarian = test system: OVCAR-3 ovarian
786-0 renal = test system: 786-0 renal
COLO 205 colon = test system: COLO 205 colon
NCI-H226 lung = test system: NCI-H226 lung
NCI/ADR-RES ovarian = test system: NCI/ADR-RES ovarian
CAKI-1 renal = test system: CAKI-1 renal
MOLT-4 leukemia = test system: MOLT-4 leukemia
SF-539 CNS = test system: SF-539 CNS
RXF 393 renal = test system: RXF 393 renal
SK-OV-3 ovarian = test system: SK-OV-3 ovarian
SF-268 CNS = test system: SF-268 CNS
T-47D breast = test system: T-47D breast
K-562 leukemia = test system: K-562 leukemia
HOP-62 NSCLC = test system: HOP-62 NSCLC
ACHN renal = test system: ACHN renal
M14 melanoma = test system: M14 melanoma
SNB-19 CNS = test system: SNB-19 CNS
HCC-2998 colon = test system: HCC-2998 colon
KM12 colon = test system: KM12 colon

Work on `NCC[Se][Se]CCN` yielded a TGI (NCI-H522 lung) of 25.6 µM, a TGI (PC-3 prostate) of 27.5 µM and a TGI (MCF7 breast) of 33.1 µM. For the same compound, the TGI (HT29 colon) was 26.9 µM, the TGI (IGROV1 ovarian) was 25.7 µM and the TGI (MALME-3M melanoma) was 25.2 µM. The TGI (NCI-H23 lung) was 30.6 µM, the TGI (HOP-92 NSCLC) was 35.8 µM and the TGI (MDA-N) was 23.4 µM. It also gave a TGI (HCT-116 colon) of 15.3 µM, a TGI (HL-60(TB) leukemia) of 7.57 µM and a TGI (SR leukemia) of over 100 µM. The TGI (OVCAR-4 ovarian) was 32.1 µM, the TGI (UACC-257 melanoma) was 20.4 µM and the TGI (SK-MEL-2 melanoma) was 23.2 µM. For the same compound, the TGI (OVCAR-5 ovarian) was 17.6 µM, the TGI (NCI-H460 lung) was 21.9 µM and the TGI (DU-145 prostate) was 26.4 µM. For the same compound, the TGI (RPMI-8226 leukemia) was over 100 µM, the TGI (SW-620 colon) was 48.9 µM and the TGI (OVCAR-8 ovarian) was 38.1 µM. The TGI (A498 renal) was 23.8 µM, the TGI (HCT-15 colon) was 22.1 µM and the TGI (SK-MEL-28 melanoma) was 29.7 µM. It also gave a TGI (SK-MEL-5 melanoma) of 18.4 µM, a TGI (MDA-MB-435) of 24.9 µM and a TGI (CCRF-CEM leukemia) of 45.6 µM. For the same compound, the TGI (HS 578T breast) was 82.2 µM, the TGI (A549 NSCLC) was 25.3 µM and the TGI (SF-295 CNS) was 11.5 µM. The TGI (SN12C renal) was 21.5 µM, the TGI (MDA-MB-231 breast) was 25.7 µM and the TGI (EKVX NSCLC) was 18.1 µM. For the same compound, the TGI (U251 CNS) was 24.1 µM, the TGI (UO-31 renal) was 13.3 µM and the TGI (SNB-75 CNS) was 27.4 µM. For the same compound, the TGI (UACC-62 melanoma) was 31.1 µM, the TGI (TK-10 renal) was 30.7 µM and the TGI (BT-549 breast) was 27.8 µM. It also gave a TGI (OVCAR-3 ovarian) of 28.3 µM, a TGI (786-0 renal) of 29.4 µM and a TGI (COLO 205 colon) of 14.6 µM. The TGI (NCI-H226 lung) was 29.1 µM, the TGI (NCI/ADR-RES ovarian) was 58 µM and the TGI (CAKI-1 renal) was 22.8 µM. The TGI (MOLT-4 leukemia) was over 100 µM, the TGI (SF-539 CNS) was 34.4 µM and the TGI (RXF 393 renal) was 32.5 µM. It also gave a TGI (SK-OV-3 ovarian) of 25.8 µM, a TGI (SF-268 CNS) of 32.5 µM and a TGI (T-47D breast) of 64.4 µM. The TGI (K-562 leukemia) was 64 µM, the TGI (HOP-62 NSCLC) was 21.3 µM and the TGI (ACHN renal) was 22.8 µM. The TGI (M14 melanoma) was 13.3 µM, the TGI (SNB-19 CNS) was 20.7 µM and the TGI (HCC-2998 colon) was 24.9 µM. It also gave a TGI (KM12 colon) of 20.6 µM.
`COC(=O)CCC1(C)C2CCC1(C)/C(=N/O)C2` (stereo not given) gave a TGI (NCI-H522 lung) of over 100 µM, a TGI (PC-3 prostate) of over 100 µM and a TGI (MCF7 breast) of over 100 µM. For the same compound, the TGI (HT29 colon) was over 100 µM, the TGI (IGROV1 ovarian) was over 100 µM and the TGI (MALME-3M melanoma) was over 100 µM. For the same compound, the TGI (NCI-H23 lung) was over 100 µM, the TGI (MDA-N) was over 100 µM and the TGI (HCT-116 colon) was over 100 µM. For the same compound, the TGI (OVCAR-4 ovarian) was over 100 µM, the TGI (UACC-257 melanoma) was over 100 µM and the TGI (SK-MEL-2 melanoma) was over 100 µM. The TGI (OVCAR-5 ovarian) was over 100 µM, the TGI (DU-145 prostate) was over 100 µM and the TGI (RPMI-8226 leukemia) was over 100 µM. It also gave a TGI (SW-620 colon) of over 100 µM, a TGI (OVCAR-8 ovarian) of over 100 µM and a TGI (HCT-15 colon) of over 100 µM. The TGI (SK-MEL-28 melanoma) was over 100 µM, the TGI (SK-MEL-5 melanoma) was over 100 µM and the TGI (MDA-MB-435) was over 100 µM. It also gave a TGI (CCRF-CEM leukemia) of over 100 µM, a TGI (HS 578T breast) of over 100 µM and a TGI (A549 NSCLC) of over 100 µM. For the same compound, the TGI (SF-295 CNS) was over 100 µM, the TGI (SN12C renal) was over 100 µM and the TGI (MDA-MB-231 breast) was over 100 µM. For the same compound, the TGI (EKVX NSCLC) was over 100 µM, the TGI (U251 CNS) was over 100 µM and the TGI (UO-31 renal) was over 100 µM. The TGI (SNB-75 CNS) was over 100 µM, the TGI (UACC-62 melanoma) was over 100 µM and the TGI (TK-10 renal) was over 100 µM. The TGI (BT-549 breast) was over 100 µM, the TGI (OVCAR-3 ovarian) was over 100 µM and the TGI (786-0 renal) was over 100 µM. It also gave a TGI (COLO 205 colon) of over 100 µM, a TGI (NCI-H226 lung) of over 100 µM and a TGI (NCI/ADR-RES ovarian) of over 100 µM. For the same compound, the TGI (CAKI-1 renal) was over 100 µM, the TGI (MOLT-4 leukemia) was over 100 µM and the TGI (RXF 393 renal) was over 100 µM. The TGI (SK-OV-3 ovarian) was over 100 µM, the TGI (SF-268 CNS) was over 100 µM and the TGI (T-47D breast) was over 100 µM. It also gave a TGI (K-562 leukemia) of over 100 µM, a TGI (HOP-62 NSCLC) of over 100 µM and a TGI (ACHN renal) of over 100 µM. The TGI (M14 melanoma) was over 100 µM, the TGI (SNB-19 CNS) was over 100 µM and the TGI (HCC-2998 colon) was over 100 µM. For the same compound, the TGI (KM12 colon) was over 100 µM.
